Test results: patent US8167991B2, “Trisazo compound, ink composition, recording method, and colored article” (Nippon Kayaku Kabushiki Kaisha, priority 2006, dated 2012)

Test: Solubility of the dye compound
Type: physicochemical
Settings: compound obtained as a sodium salt; read-out: solubility

SMILES | solubility
Cc1cc(N=Nc2c(S(=O)(=O)O)cc3c(S(=O)(=O)O)c(N=Nc4cc(S(=O)(=O)O)c5cc(S(=O)(=O)O)c(N=Nc6ccc([N+](=O)[O-])cc6S(=O)(=O)O)c(O)c5c4N)ccc3c2O)c(OCCCS(=O)(=O)O)cc1N=Nc1cc(C)c(N=Nc2ccc(S(=O)(=O)O)c3cc(S(=O)(=O)O)cc(O)c23)cc1OCCCS(=O)(=O)O [formula (75)] | ≥ 100 mg/mL
CS(=O)(=O)O.Cc1cc(N=Nc2c(C)c(C(N)=O)c3nc4ccccc4n3c2O)c(OCCCS(=O)(=O)O)cc1N=Nc1cc(C)c(N=Nc2ccc(S(=O)(=O)O)cc2C(=O)O)cc1OCCCS(=O)(=O)O [Compound No. 7] | ≥ 100 mg/mL
CS(=O)(=O)O.Cc1cc(N=Nc2c(-c3ccccc3)c(C#N)c3nc4ccccc4n3c2O)c(OCCCS(=O)(=O)O)cc1N=Nc1ccc(N=Nc2ccc(S(=O)(=O)O)cc2)cc1S(=O)(=O)O [Compound No. 4] | ≥ 100 mg/mL
CS(=O)(=O)O.Cc1cc(N=Nc2c(C)c(C#N)c3nc4ccccc4n3c2O)c(OCCCS(=O)(=O)O)cc1N=Nc1cc(C)c(N=Nc2ccc(S(=O)(=O)O)cc2C(=O)O)cc1OCCCS(=O)(=O)O [Compound No. 6] | ≥ 100 mg/mL

Other lines, results leading:

solubility | SMILES
≥ 100 mg/mL | CCCc1c(N=Nc2cc(C)c(N=Nc3ccc(N=Nc4ccc(S(=O)(=O)O)cc4)cc3S(=O)(=O)O)cc2OCCCS(=O)(=O)O)c(O)n2c(nc3ccccc32)c1C#N.CS(=O)(=O)O [Compound No. 3]
≥ 100 mg/mL | CS(=O)(=O)O.Cc1cc(N=Nc2c(C)c(C#N)c3nc4ccccc4n3c2O)c(OCCCCS(=O)(=O)O)cc1N=Nc1ccc(N=Nc2ccc(S(=O)(=O)O)cc2)cc1S(=O)(=O)O [Compound No. 20]

Same assay, conditions: water; read-out: solubility in water

solubility | SMILES
≥ 100 mg/mL | Nc1c(N=Nc2ccc3c(O)c(N=Nc4ccc5c(O)c(N=Nc6ccc(N=Nc7ccc(S(=O)(=O)O)cc7)cc6S(=O)(=O)O)c(S(=O)(=O)O)cc5c4S(=O)(=O)O)c(S(=O)(=O)O)cc3c2S(=O)(=O)O)cc(S(=O)(=O)O)c2cc(S(=O)(=O)O)c(N=Nc3ccc([N+](=O)[O-])cc3S(=O)(=O)O)c(O)c12 [formula (II-56)]
≥ 100 mg/mL | Cc1cc(N=Nc2c(S(=O)(=O)O)cc3c(S(=O)(=O)O)c(N=Nc4c(S(=O)(=O)O)cc5c(S(=O)(=O)O)c(N=Nc6cc(S(=O)(=O)O)c7cc(S(=O)(=O)O)c(N=Nc8ccc([N+](=O)[O-])cc8S(=O)(=O)O)c(O)c7c6N)ccc5c4O)ccc3c2O)c(OCCCS(=O)(=O)O)cc1N=Nc1cc(C(=O)O)cc(C(=O)O)c1 [formula (II-61)]
≥ 100 mg/mL | Nc1c(N=Nc2ccc3c(O)c(N=Nc4ccc5c(O)c(N=Nc6ccc(N=Nc7ccc(S(=O)(=O)O)cc7)cc6S(=O)(=O)O)c(S(=O)(=O)O)cc5c4S(=O)(=O)O)c(S(=O)(=O)O)cc3c2S(=O)(=O)O)cc(S(=O)(=O)O)c2cc(S(=O)(=O)O)c(N=Nc3ccc(S(=O)(=O)O)cc3[N+](=O)[O-])c(O)c12 [formula (II-57)]
≥ 100 mg/mL | Cc1cc(N=Nc2c(S(=O)(=O)O)cc3c(S(=O)(=O)O)c(N=Nc4c(S(=O)(=O)O)cc5c(S(=O)(=O)O)c(N=Nc6cc(S(=O)(=O)O)c7cc(S(=O)(=O)O)c(N=Nc8ccc([N+](=O)[O-])cc8S(=O)(=O)O)c(O)c7c6N)ccc5c4O)ccc3c2O)c(OCCCS(=O)(=O)O)cc1N=Nc1cc(S(=O)(=O)O)cc2cc(S(=O)(=O)O)cc(O)c12 [formula (II-59)]
